Measured values published in patent publication US20100256136A1, “Method for Enhancing Pdt Efficacy Using a Tyrosine Kinase Inhibitor” (priority 2006, published 2010).
Counter-ions that a name gives are not always drawn.

Experiments:
ABCG2 [1] = target: T1, ABCG2 (Homo sapiens, UniProt Q9UNQ0); conditions: literature (refs 8, 10); cited from earlier work
T1 sequence (Q9UNQ0 1-655): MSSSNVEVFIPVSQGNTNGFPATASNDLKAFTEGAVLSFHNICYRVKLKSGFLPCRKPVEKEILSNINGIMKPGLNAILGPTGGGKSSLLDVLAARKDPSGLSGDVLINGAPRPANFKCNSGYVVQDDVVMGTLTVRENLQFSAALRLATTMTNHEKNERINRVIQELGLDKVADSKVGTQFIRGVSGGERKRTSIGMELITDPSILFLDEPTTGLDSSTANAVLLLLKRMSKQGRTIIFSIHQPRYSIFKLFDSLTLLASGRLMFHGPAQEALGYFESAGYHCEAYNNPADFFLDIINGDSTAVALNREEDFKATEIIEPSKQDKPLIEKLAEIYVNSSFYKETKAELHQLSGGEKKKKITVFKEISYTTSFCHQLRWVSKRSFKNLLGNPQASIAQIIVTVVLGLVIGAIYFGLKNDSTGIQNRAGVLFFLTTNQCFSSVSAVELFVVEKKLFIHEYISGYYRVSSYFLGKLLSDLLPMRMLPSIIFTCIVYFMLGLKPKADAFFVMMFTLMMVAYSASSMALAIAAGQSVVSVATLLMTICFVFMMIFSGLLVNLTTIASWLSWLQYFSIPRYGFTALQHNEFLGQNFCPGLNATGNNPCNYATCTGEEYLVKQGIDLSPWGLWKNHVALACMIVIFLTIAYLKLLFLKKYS

BCC-1 cells [2] = test: In vitro PDT phototoxicity (MTT assay) with ABCG2 modulators; format: cell-based, human; conditions: BCC-1 cells (ABCG2+), 0.4 μM HPPH, 10 μM imatinib mesylate
Colo 26 cells [3] = test: Photosensitizer accumulation with ABCG2 modulators; format: cell-based, murine; conditions: 0.8 mM ALA, with vs without imatinib mesylate
Experimental: (§1) Cells were plated in 6-well plates at a density of 3×10^5 cells per well and incubated overnight. […] Cells were cultured for an additional 4 hours, then washed with cold culture medium and with PBS. Photosensitizer levels were determined using Solvable® (Perkin Elmer, Boston, MA) extraction (17). Briefly, the cells were solubilized in 0.5 ml Solvable® at 37° C. overnight. The Solvable® extract then was diluted 1:1 with PBS, the photosensitizer levels were determined by fluorometry, and concentrations were extrapolated from standard curves. Intracellular photosensitizer levels were normalized to intracellular protein content. To study photosensitizer efflux, cells were incubated with photosensitizer for 4 hours, then washed once with cold medium, resuspended in drug-free medium, placed at 37° C. or 4° C. for 1 hour and washed once with cold PBS. Photosensitizer levels were then determined using Solvable® extraction, as above.

HEK-293 pcDNA cells [4] = test: Photosensitizer accumulation with ABCG2 modulators; format: cell-based; conditions: 10 μM modulator, 0.8 μM HPPH, four hours
Experimental: as §1

HEK-293 R482 cells = test: Photosensitizer accumulation with ABCG2 modulators; format: cell-based; conditions: 10 μM modulator, 0.8 μM HPPH, four hours, p<0.05
Experimental: as §1

FaDu cells [5] = test: In vitro PDT phototoxicity (MTT assay) with ABCG2 modulators; format: cell-based, human; conditions: FaDu cells (lack ABCG2), 0.8 μM HPPH, 10 or 20 μM imatinib mesylate
RIF-1 cells [6] = format: cell-based, murine; conditions: for Increase of intracellular HPPH levels: 0.8 μM HPPH, 10 μM modulator, p<0.01
Experimental: as §1

Colo 26 cells [7] = test: In vitro PDT phototoxicity (MTT assay) with ABCG2 modulators; format: cell-based, murine; conditions: ALA, 10 μM imatinib mesylate
RIF-1 tumors [8] = test: HPPH levels in tumor, skin and muscle of tumor-bearing mice; format: in vivo, C3H/HeJCr mice; conditions: same regimen as tumor levels, 24 hours after HPPH
Experimental: (§2) To determine photosensitizer levels, samples of tumor, skin and muscle tissue were harvested 24 hours after the HPPH administration and dissolved in Solvable at 63° C. overnight. HPPH levels were measured by fluorometry as described above. In other experiments mice were administered ^14C-labelled HPPH and photosensitizer levels in the harvested tissues were determined by scintillation counting. […] After 24 hours, the tumors were treated with 665 nm light from an argon ion laser-pumped dye laser (Spectra Physics, Mountain View CA) with a fluence of 72 J/cm^2 delivered at a rate of 14 mW/cm^2. […] Tumors were measured every 1 to 3 days, and mice were sacrificed when tumor volumes exceeded 400 mm^3.

RIF-1 tumors [9] = test system: RIF-1 tumors
Experimental: as §2

HEK-293 pcDNA cells [10] = test: In vitro PDT phototoxicity (MTT assay) with ABCG2 modulators; format: cell-based; conditions: 0.8 μM HPPH
RIF-1 cells [11] = test: as above; conditions: for Increase of HPPH-PDT phototoxicity: 10 μM modulator, high light doses
[12] = test system: HEK-293 R482 cells (ABCG2+); test: HPPH uptake and efflux in ABCG2-transfected cells; format: cell-based
Description: (§3) In general known cell lines were used. FaDu human hypopharyngeal squamous cell carcinoma, RIF-1 murine radiation-induced fibrosarcoma and Colo 26 murine colon carcinoma cells were obtained from the American Type Culture Collection (ATCC; Manassas, VA). BCC-1/KMC, a human basal cell carcinoma cell line (14), was provided by Dr. Tak-Wah Wong, National Cheng Kung University Hospital, Tainan, Taiwan. HEK-293 cells transfected with either an empty pcDNA3 vector or a pcDNA3 vector containing full-length ABCG2 (HEK-293 pcDNA or HEK-293 […]) were provided by Dr. Susan Bates at the U.S. National Institute of Health, Bethesda, MD.. Cells were plated in 6-well plates at a density of 3×10^5 cells per well and incubated overnight. […] Cells were cultured for an additional 4 hours, then washed with cold culture medium and with PBS. Photosensitizer levels were determined using Solvable® (Perkin Elmer, Boston, MA) extraction (17). Briefly, the cells were solubilized in 0.5 ml Solvable® at 37° C. overnight. The Solvable® extract then was diluted 1:1 with PBS, the photosensitizer levels were determined by fluorometry, and concentrations were extrapolated from standard curves. Intracellular photosensitizer levels were normalized to intracellular protein content. […] Photosensitizer levels were then determined using Solvable® extraction, as above.

ABCG2 [13] = test: ABCG2 substrate status concluded from efflux and phototoxicity studies; format: cell-based; conditions: conclusion from efflux and phototoxicity data
Experimental: as §1

Colo 26 cells [14] = test: Photosensitizer efflux, 1 h in drug-free medium at 37° C. or 4° C.; format: cell-based, murine; conditions: Colo 26 cells (ABCG2+), 1 h efflux
Experimental: as §1

RIF-1 cells [15] = test: as above; format: cell-based, murine; conditions: RIF-1 cells (ABCG2+), 1 h efflux
Experimental: as §1

BCC-1 cells [16] = test: as above; format: cell-based, human; conditions: BCC-1 cells (ABCG2+), 1 h efflux
Experimental: as §1

FaDu cells [17] = test: as above; format: cell-based, human; conditions: lack ABCG2 expression, 1 h efflux
Experimental: as §1

[18] = test system: HEK-293 pcDNA cells (ABCG2-); test: HPPH efflux in empty-vector control cells; format: cell-based; conditions: HEK293-pcDNA3 cells
Description: as §3

Compound: C=CC1=C(C)c2cc3[nH]c(cc4nc(cc5[nH]c(cc1n2)c(C)c5CCC(=O)O)C(CCC(=O)O)=C4C)c(C)c3C=C [5-aminolevulinic acid (ALA)-induced PpIX, protoporphyrin IX]
- Transport by ABCG2 (ABCG2 [1]): transports

Compound: pyropheophorbide-a methyl ester
- Transport by ABCG2 (ABCG2 [1]): transports

Compound: C=Cc1c(C)c2cc3nc(c(CC(=O)O)c4[nH]c(cc5nc(cc1[nH]2)C(C)=C5CC)c(C)c4C(=O)O)[C@@H](CCC(=O)O)[C@@H]3C [chlorin e6]
- Transport by ABCG2 (ABCG2 [1]): transports

Compound: C=Cc1c(C)c2cc3nc(c4c5[nH]c(cc6nc(cc1[nH]2)C(C)=C6CC)c(C)c5C(=O)[C@@H]4C(=O)OC)[C@@H](CCC(=O)O)[C@@H]3C [pheophorbide α]
- Transport by ABCG2 (ABCG2 [1]): specific substrate

Compound: Cc1ccc(NC(=O)c2ccc(CN3CCN(C)CC3)cc2)cc1Nc1nccc(-c2cccnc2)n1 [imatinib mesylate, 4[(4-methyl-1-piperazininyl)methyl]-N-(4-methyl-3-[(4-(3-pyidinyl)-2-pyrimidinyl)amino)-phenyl] benzamide methane sulfonate]
- Effect on HPPH-PDT phototoxicity (BCC-1 cells [2]): increased
- Effect on intracellular levels of ALA-induced PpIX (Colo 26 cells [3]): increased
- Effect on HPPH accumulation (HEK-293 pcDNA cells [4]): no effect
- Effect on intracellular HPPH levels (HEK-293 R482 cells): increased
- Effect on HPPH-PDT phototoxicity (FaDu cells [5]): not
- Effect on intracellular levels of BPD-MA (RIF-1 cells [6]; 0.14 μM BPD-MA, with vs without imatinib mesylate): increased
- Increase of intracellular HPPH levels (RIF-1 cells [6]): ~4 fold
- Effect on phototoxicity of PpIX (Colo 26 cells [7]): increased
- Effect on HPPH levels in skin and muscle (RIF-1 tumors [8]): less effect
- Anti-tumor effects of imatinib mesylate alone, without PDT (RIF-1 tumors [9]; brief course, 4 x 200 mg/kg oral gavage): no anti-tumor effects
- Observable toxicity (RIF-1 tumors [9]; mouse, in vivo): no observable toxicity
- Effect on sensitivity to HPPH-PDT (HEK-293 pcDNA cells [10]; HEK-293 pcDNA3 cells, pretreatment with 10 μM): no effect
- Effect on phototoxicity of BPD-MA (RIF-1 cells [11]; 0.14 μM BPD-MA, 10 μM imatinib mesylate): increased
- Increase of HPPH-PDT phototoxicity (RIF-1 cells [11]; 0.8 μM HPPH): ~2 logs
- Effect on phototoxicity of HPPH-lactose-PDT (RIF-1 cells [11]; 1.6 μM HPPH-Lactose, 10 μM imatinib mesylate): did not increase
- Effect on phototoxicity of Photofrin-PDT (RIF-1 cells [11]; 2 μg/ml Photofrin, 10 μM imatinib mesylate): did not increase

Compound: COc1cc2ncnc(Nc3ccc(F)c(Cl)c3)c2cc1OCCCN1CCOCC1 [gefitnib, N-(3-chloro-4-fluoro-phenyly)-7-methoxy-6(3-morpholin-4-ylpropoxy) quinazolin-4-amine]
- Effect on HPPH-PDT phototoxicity (RIF-1 cells [11]; 0.8 μM HPPH, CsA 10 μM, gefitinib 5 μM): effective
- Dark toxicity (RIF-1 cells [11]; 5 μM): significant dark toxicity

Compound: COc1ccc2c3c([nH]c2c1)[C@H](C=C(C)C)N1C(=O)[C@@H]2CCCN2C(=O)[C@@H]1C3 [FTC, fumitremorgin C]
- Increase of intracellular HPPH levels (RIF-1 cells [6]): ~4 fold
- Increase of HPPH-PDT phototoxicity (RIF-1 cells [11]; 0.8 μM HPPH): ~2 logs

Compound: CCCCCCOC(C)c1c(C)c2cc3nc(c4c5[nH]c(cc6nc(cc1[nH]2)C(C)=C6CC)c(C)c5C(=O)C4)[C@@H](CCC(=O)O)[C@@H]3C (stereo partly shown) [HPPH, 2-[1-hexyloxyethyl]-2-devinyl pyropheophorbide-a]
- Intracellular HPPH level after efflux at 4° C. compared to 37° C. ([12]; HEK-293 R482 cells, 1 h efflux): significantly (p<0.05) higher
- HPPH levels after uptake (0 hour group), ABCG2- HEK-293 pcDNA3 cells compared to ABCG2+ HEK-293 R482 cells ([12]; after 4 h uptake): significantly (p<0.05) higher
- Substrate for ABCG2 (ABCG2 [13]): ABCG2 substrate
- Intracellular HPPH level after efflux at 37° C. compared to 4° C. (Colo 26 cells [14]): significantly (p<0.01) lower
- Intracellular HPPH level after efflux at 37° C. compared to 4° C. (RIF-1 cells [15]): significantly (p<0.01) lower
- Time for 50% of the tumors to grow to 400 mm^3 (RIF-1 tumors [9]; HPPH-PDT treatment alone: 0.2 μmol/kg HPPH, 24 hours later 72 J/cm^2 665 nm light at 14 mW/cm^2): 6 days
- Sensitivity to HPPH-PDT, HEK-293 pcDNA cells compared to HEK-293 R482 cells (HEK-293 pcDNA cells [10]; no modulator): more sensitive
- Intracellular HPPH level after efflux at 37° C. compared to 4° C. (BCC-1 cells [16]): significantly (p<0.01) lower
- HPPH content following efflux at 37° C. and 4° C. (FaDu cells [17]): did not differ significantly
- Temperature-dependent changes in efflux of HPPH [18]: no temperature-dependent changes
